Data: patent US12624044B2, “SMARCA degraders and uses thereof” (Kymera Therapeutics, Inc., priority 2019, dated 2026)

Key:
[1] = molecular target: SMARCA2 (Homo sapiens, UniProt P51531); assay: MSD SMARCA2 degradation in A549 cell line; assay type: cell-based; settings: 24 h; for Dmax: A549, A549 cells; for DC50: A549 cells, read-out: SMARCA2 MSD A549 degradation 24 h: Average external-Abs DC50
Summary of the method: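 SMARCA2 remaining was measured by MSD electrochemiluminescence on RIPA lysates (anti-SMARCA2 plus SULFO-TAG anti-rabbit). Prior exposure: 24 h of A549 cells to a 10-point, 3-fold dilution series topping at 1000 nM final; Dmax % given as graded codes.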

[2] = molecular target: T1, SMARCA4 (Homo sapiens, UniProt P51532); assay: SMARCA4 Western blot MV4-11 degradation; assay type: cell-based; settings: 24 h; for Dmax: MV4-11, MV4-11 cells, read-out: SMARCA4 WB MV411 degradation 24 h: Average Dmax %; for DC50: MV4-11 cells, read-out: SMARCA4 WB MV411 degradation 24 h: Average external-Abs DC50
T1 construct: SMARCA2 and SMARCA4 protein degradation in MV4-11 cells; endogenous in cells; host or cells: MV4-11
Summary of the method: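 MV4-11 cells treated with compound for 24 h, lysed in RIPA with protease/phosphatase inhibitors, and SMARCA2 and SMARCA4 (BRG1) levels assessed by Western blot with β-actin loading control and LI-COR fluorescent read-out. Maximal degradation (Dmax %) after 24 h binned into letter codes.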

Chain of SMARCA2 (P51531 whole entry): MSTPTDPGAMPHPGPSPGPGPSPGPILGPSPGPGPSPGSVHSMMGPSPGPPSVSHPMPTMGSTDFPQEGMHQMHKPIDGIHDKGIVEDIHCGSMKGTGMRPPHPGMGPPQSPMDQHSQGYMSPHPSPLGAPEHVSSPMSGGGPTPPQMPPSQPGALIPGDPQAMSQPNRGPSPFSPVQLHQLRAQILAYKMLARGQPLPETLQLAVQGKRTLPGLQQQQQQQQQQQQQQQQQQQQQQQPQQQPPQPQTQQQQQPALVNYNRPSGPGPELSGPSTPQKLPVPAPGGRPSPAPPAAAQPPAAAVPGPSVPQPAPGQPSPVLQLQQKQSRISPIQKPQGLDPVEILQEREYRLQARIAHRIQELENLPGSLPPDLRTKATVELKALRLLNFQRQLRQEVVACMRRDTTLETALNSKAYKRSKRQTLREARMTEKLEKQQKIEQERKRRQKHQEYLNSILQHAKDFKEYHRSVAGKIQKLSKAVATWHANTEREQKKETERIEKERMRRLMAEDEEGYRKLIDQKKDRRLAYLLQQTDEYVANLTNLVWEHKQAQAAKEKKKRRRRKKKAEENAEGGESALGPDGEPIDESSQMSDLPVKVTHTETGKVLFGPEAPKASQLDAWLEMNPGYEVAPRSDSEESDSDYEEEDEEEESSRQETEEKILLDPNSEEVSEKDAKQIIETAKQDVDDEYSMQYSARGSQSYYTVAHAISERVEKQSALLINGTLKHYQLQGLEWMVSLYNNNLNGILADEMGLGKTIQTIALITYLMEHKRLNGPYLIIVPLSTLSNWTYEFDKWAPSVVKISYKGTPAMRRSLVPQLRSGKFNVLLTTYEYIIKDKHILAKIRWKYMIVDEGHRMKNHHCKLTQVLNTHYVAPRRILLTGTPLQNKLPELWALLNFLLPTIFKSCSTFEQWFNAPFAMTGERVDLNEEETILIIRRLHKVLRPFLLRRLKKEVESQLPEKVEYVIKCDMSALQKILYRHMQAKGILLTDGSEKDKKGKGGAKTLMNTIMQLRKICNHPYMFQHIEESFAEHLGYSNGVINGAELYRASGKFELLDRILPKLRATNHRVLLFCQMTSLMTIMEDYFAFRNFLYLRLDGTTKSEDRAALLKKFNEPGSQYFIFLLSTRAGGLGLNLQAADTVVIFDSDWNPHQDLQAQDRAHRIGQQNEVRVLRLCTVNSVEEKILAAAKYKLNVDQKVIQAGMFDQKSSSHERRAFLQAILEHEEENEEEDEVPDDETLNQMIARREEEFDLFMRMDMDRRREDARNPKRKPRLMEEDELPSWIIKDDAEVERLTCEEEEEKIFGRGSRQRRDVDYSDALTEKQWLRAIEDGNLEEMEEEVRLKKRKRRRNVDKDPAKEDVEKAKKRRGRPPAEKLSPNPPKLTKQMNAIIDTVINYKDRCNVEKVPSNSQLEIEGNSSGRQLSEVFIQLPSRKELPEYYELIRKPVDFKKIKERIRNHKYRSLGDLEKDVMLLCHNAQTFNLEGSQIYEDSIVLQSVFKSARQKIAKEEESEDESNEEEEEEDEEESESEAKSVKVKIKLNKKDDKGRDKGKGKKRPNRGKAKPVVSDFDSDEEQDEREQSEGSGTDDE
T1 sequence (P51532 whole entry): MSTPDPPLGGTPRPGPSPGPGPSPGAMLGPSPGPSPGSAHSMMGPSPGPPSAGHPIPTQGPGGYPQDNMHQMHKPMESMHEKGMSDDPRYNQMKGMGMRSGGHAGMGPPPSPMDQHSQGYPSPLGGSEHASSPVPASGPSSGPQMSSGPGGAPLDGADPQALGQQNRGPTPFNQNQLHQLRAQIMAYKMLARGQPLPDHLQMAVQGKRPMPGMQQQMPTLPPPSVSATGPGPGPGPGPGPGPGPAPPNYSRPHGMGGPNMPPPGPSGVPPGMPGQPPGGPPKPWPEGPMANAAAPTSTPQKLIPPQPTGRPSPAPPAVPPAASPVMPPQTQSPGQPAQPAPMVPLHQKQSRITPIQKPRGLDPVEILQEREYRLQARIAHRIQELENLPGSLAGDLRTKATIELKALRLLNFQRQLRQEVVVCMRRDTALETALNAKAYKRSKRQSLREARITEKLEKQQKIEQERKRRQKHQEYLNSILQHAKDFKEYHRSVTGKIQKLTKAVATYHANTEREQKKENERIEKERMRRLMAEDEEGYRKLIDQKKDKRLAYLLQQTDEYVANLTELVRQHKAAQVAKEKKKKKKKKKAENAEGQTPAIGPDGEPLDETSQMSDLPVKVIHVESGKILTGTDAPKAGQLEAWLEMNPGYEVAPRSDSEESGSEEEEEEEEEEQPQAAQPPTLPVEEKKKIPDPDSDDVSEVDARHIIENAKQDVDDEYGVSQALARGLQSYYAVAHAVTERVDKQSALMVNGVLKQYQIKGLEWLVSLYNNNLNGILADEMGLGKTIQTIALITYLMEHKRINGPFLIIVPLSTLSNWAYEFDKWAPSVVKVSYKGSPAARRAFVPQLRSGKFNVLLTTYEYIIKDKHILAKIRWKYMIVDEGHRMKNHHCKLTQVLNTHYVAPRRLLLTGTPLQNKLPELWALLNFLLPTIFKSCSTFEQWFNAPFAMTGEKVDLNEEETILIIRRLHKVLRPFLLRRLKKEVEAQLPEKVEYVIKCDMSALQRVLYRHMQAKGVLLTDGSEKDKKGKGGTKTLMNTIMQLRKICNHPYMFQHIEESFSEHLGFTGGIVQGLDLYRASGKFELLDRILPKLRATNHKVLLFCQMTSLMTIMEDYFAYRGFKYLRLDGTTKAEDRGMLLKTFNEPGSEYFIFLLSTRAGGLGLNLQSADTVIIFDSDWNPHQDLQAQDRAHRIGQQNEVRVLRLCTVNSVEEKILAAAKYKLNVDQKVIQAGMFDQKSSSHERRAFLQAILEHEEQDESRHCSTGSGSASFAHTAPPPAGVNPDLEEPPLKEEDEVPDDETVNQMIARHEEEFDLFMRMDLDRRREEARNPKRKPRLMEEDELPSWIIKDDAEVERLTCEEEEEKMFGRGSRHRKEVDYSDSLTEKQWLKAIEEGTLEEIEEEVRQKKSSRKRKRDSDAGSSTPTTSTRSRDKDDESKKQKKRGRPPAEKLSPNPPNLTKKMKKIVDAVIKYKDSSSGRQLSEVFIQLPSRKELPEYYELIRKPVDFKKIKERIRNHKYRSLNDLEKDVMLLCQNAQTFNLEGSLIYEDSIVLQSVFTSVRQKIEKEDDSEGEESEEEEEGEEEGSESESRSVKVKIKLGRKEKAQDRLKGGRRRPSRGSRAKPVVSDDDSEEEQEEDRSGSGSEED

Cc1ncsc1-c1ccc(CNC(=O)[C@@H]2C[C@@H](O)CN2C(=O)[C@@H](NC(=O)COCCCc2cnc(N3C4CCC3CN(c3cc(-c5ccccc5O)nnc3N)C4)nc2)C(C)(C)C)cc1 [I-357]
Dmax [1]: > 90%
DC50 [1]: 100 to 500 nM
Dmax [2]: > 90%
DC50 [2]: < 100 nM

Cc1ncsc1-c1ccc(CNC(=O)[C@@H]2C[C@@H](O)CN2C(=O)[C@@H](NC(=O)[C@H]2C[C@@H](N3CCC(n4cc(-c5cc(-c6ccccc6O)nnc5N)cn4)CC3)C2)C(C)(C)C)cc1 [I-358]
Dmax [1]: 70 to 90%
DC50 [1]: 501 to 1000 nM
Dmax [2]: > 90%
DC50 [2]: 100 to 500 nM

Cc1ncsc1-c1ccc(CNC(=O)[C@@H]2C[C@@H](O)CN2C(=O)[C@@H](NC(=O)[C@H]2C[C@H](N3CCC(n4cc(-c5cc(-c6ccccc6O)nnc5N)cn4)CC3)C2)C(C)(C)C)cc1 [I-359]
Dmax [1]: < 50%
DC50 [1]: > 1000 nM
Dmax [2]: < 50%
DC50 [2]: > 1000 nM

Cc1ncsc1-c1ccc(CNC(=O)[C@@H]2C[C@@H](O)CN2C(=O)[C@@H](NC(=O)[C@H]2CC[C@@H](N3CCC(n4cc(-c5cc(-c6ccccc6O)nnc5N)cn4)CC3)CC2)C(C)(C)C)cc1 [I-360]
Dmax [1]: < 50%
DC50 [1]: > 1000 nM
Dmax [2]: 50 to 70%
DC50 [2]: > 1000 nM

Cc1ncsc1-c1ccc(CNC(=O)[C@@H]2C[C@@H](O)CN2C(=O)[C@@H](NC(=O)[C@H]2CC[C@H](N3CCC(n4cc(-c5cc(-c6ccccc6O)nnc5N)cn4)CC3)CC2)C(C)(C)C)cc1 [I-361]
Dmax [1]: 50 to 70%
DC50 [1]: 501 to 1000 nM
Dmax [2]: < 50%
DC50 [2]: > 1000 nM

Cc1ncsc1-c1ccc(CNC(=O)[C@@H]2C[C@@H](O)CN2C(=O)[C@@H](NC(=O)[C@H]2CC[C@@H](c3nccc(N4C5CCC4CN(c4cc(-c6ccccc6O)nnc4N)C5)n3)CC2)C(C)(C)C)cc1 [I-362]
Dmax [1]: 70 to 90%
DC50 [1]: 501 to 1000 nM
Dmax [2]: > 90%
DC50 [2]: < 100 nM

Cc1ncsc1-c1ccc(CNC(=O)[C@@H]2C[C@@H](O)CN2C(=O)[C@@H](NC(=O)[C@H]2CC[C@H](c3nccc(N4C5CCC4CN(c4cc(-c6ccccc6O)nnc4N)C5)n3)CC2)C(C)(C)C)cc1 [I-363]
Dmax [1]: > 90%
DC50 [1]: 100 to 500 nM
Dmax [2]: > 90%
DC50 [2]: < 100 nM

Cc1ncsc1-c1ccc(CNC(=O)[C@@H]2C[C@@H](O)CN2C(=O)[C@@H](NC(=O)C[C@H]2CC[C@H](c3nccc(N4C5CCC4CN(c4cc(-c6ccccc6O)nnc4N)C5)n3)CC2)C(C)(C)C)cc1 [I-364]
Dmax [1]: > 90%
DC50 [1]: 100 to 500 nM
Dmax [2]: > 90%
DC50 [2]: < 100 nM

Cc1ncsc1-c1ccc(CNC(=O)[C@@H]2C[C@@H](O)CN2C(=O)[C@@H](NC(=O)C[C@H]2CC[C@@H](c3nccc(N4C5CCC4CN(c4cc(-c6ccccc6O)nnc4N)C5)n3)CC2)C(C)(C)C)cc1 [I-365]
Dmax [1]: > 90%
DC50 [1]: 100 to 500 nM
Dmax [2]: > 90%
DC50 [2]: < 100 nM

Cc1ncsc1-c1ccc(CNC(=O)[C@@H]2C[C@@H](O)CN2C(=O)[C@@H](NC(=O)CCCN2CCC(c3cnc(N4C5CCC4CN(c4cc(-c6ccccc6O)nnc4N)C5)nc3)CC2)C(C)(C)C)cc1 [I-382]
Dmax [1]: < 50%
DC50 [1]: > 1000 nM
Dmax [2]: < 50%
DC50 [2]: > 1000 nM

Cc1ncsc1-c1ccc(CNC(=O)[C@@H]2C[C@@H](O)CN2C(=O)[C@@H](NC(=O)CCCCN2CCC(c3cnc(N4C5CCC4CN(c4cc(-c6ccccc6O)nnc4N)C5)nc3)CC2)C(C)(C)C)cc1 [I-383]
Dmax [1]: < 50%
DC50 [1]: > 1000 nM
Dmax [2]: > 90%
DC50 [2]: > 1000 nM

Cc1ncsc1-c1ccc(CNC(=O)[C@@H]2C[C@@H](O)CN2C(=O)[C@@H](NC(=O)C2CCN(Cc3cnc(N4C5CCC4CN(c4cc(-c6ccccc6O)nnc4N)C5)nc3)CC2)C(C)(C)C)cc1 [I-384]
DC50 [1]: 100 to 500 nM
DC50 [2]: < 100 nM

Cc1ncsc1-c1ccc(CNC(=O)[C@@H]2C[C@@H](O)CN2C(=O)[C@@H](NC(=O)C2CN(Cc3cnc(N4C5CCC4CN(c4cc(-c6ccccc6O)nnc4N)C5)nc3)C2)C(C)(C)C)cc1 [I-385]
Dmax [1]: 50 to 70%
DC50 [1]: 501 to 1000 nM
Dmax [2]: > 90%
DC50 [2]: < 100 nM

Cc1ncsc1-c1ccc(CNC(=O)[C@@H]2C[C@@H](O)CN2C(=O)[C@@H](NC(=O)[C@@H]2CCN(Cc3cnc(N4C5CCC4CN(c4cc(-c6ccccc6O)nnc4N)C5)nc3)C2)C(C)(C)C)cc1 [I-386, (2S,4R)-1-((2S)-2-((3R)-1-((2-(3-(3-amino-6-(2-hydroxyphenyl)pyridazin-4-yl)-3,8-diazabicyclo[3.2.1]octan-8-yl)pyrimidin-5-yl)methyl)pyrrolidine-3-carboxamido)-3,3-dimethylbutanoyl)-4-hydroxy-N-(4-(4-methylthiazol-5-yl)benzyl)pyrrolidine-2-carboxamide]
Dmax [1]: 50 to 70%
DC50 [1]: 501 to 1000 nM
Dmax [2]: > 90%
DC50 [2]: 100 to 500 nM

Cc1ncsc1-c1ccc(CNC(=O)[C@@H]2C[C@@H](O)CN2C(=O)[C@@H](NC(=O)[C@H]2CCN(Cc3cnc(N4C5CCC4CN(c4cc(-c6ccccc6O)nnc4N)C5)nc3)C2)C(C)(C)C)cc1 [I-387]
Dmax [1]: < 50%
DC50 [1]: > 1000 nM
Dmax [2]: > 90%
DC50 [2]: 501 to 1000 nM

Cc1ncsc1-c1ccc(CNC(=O)[C@@H]2C[C@@H](O)CN2C(=O)C(N(C)C(=O)C[C@H]2CC[C@H](N3CCC(c4cnc(N5C6CCC5CN(c5cc(-c7ccccc7O)nnc5N)C6)nc4)CC3)CC2)C(C)(C)C)cc1 (stereo partly drawn) [I-388]
Dmax [1]: > 90%
DC50 [1]: 100 to 500 nM
Dmax [2]: 70 to 90%
DC50 [2]: < 100 nM

CC(C)(C)[C@H](NC(=O)C1(F)CC1)C(=O)N1C[C@H](O)C[C@H]1C(=O)NCc1ccc(-c2scnc2-c2ccc3cn[nH]c3c2)cc1OCCc1ccc(CN2CCN(c3cc(-c4ccccc4O)nnc3N)CC2)cc1 [I-447, (2S,4R)—N-(4-(4-(1H-indazol-6-yl)thiazol-5-yl)-2-(4-((4-(3-amino-6-(2-hydroxyphenyl)pyridazin-4-yl)piperazin-1-yl)methyl)phenethoxy)benzyl)-1-((S)-2-(1-fluorocyclopropanecarboxamido)-3,3-dimethylbutanoyl)-4-hydroxypyrrolidine-2-carboxamide]
Dmax [1]: > 90%
DC50 [1]: 100 to 500 nM
Dmax [2]: > 90%
DC50 [2]: < 100 nM

Cc1ncsc1-c1ccc(CNC(=O)[C@@H]2C[C@@H](O)CN2C(=O)[C@@H](NC(=O)CCCN2CCCC(n3cc(-c4cc(-c5ccccc5O)nnc4N)cn3)C2)C(C)(C)C)cc1 (stereo partly drawn) [I-454]
Dmax [1]: < 50%
DC50 [1]: > 1000 nM
Dmax [2]: < 50%
DC50 [2]: > 1000 nM

Cc1ncsc1-c1ccc(CNC(=O)[C@@H]2C[C@@H](O)CN2C(=O)[C@@H](NC(=O)CCN2CCN(Cc3ccc(-c4cc(-c5ccccc5O)nnc4N)cc3)CC2)C(C)(C)C)cc1 [I-474]
Dmax [1]: < 50%
DC50 [1]: > 1000 nM
Dmax [2]: 70 to 90%

Cc1ncsc1-c1ccc(CNC(=O)[C@@H]2C[C@@H](O)CN2C(=O)[C@@H](NC(=O)CCN2CCC[C@H](Cn3cc(-c4cc(-c5ccccc5O)nnc4N)cn3)C2)C(C)(C)C)cc1 [I-478]
Dmax [1]: < 50%
DC50 [1]: > 1000 nM
Dmax [2]: < 50%
DC50 [2]: > 1000 nM

Cc1ncsc1-c1ccc(CNC(=O)[C@@H]2C[C@@H](O)CN2C(=O)[C@@H](NC(=O)CCCCN2CCC[C@H](Cn3cc(-c4cc(-c5ccccc5O)nnc4N)cn3)C2)C(C)(C)C)cc1 [I-480]
Dmax [1]: < 50%
DC50 [1]: > 1000 nM
Dmax [2]: < 50%
DC50 [2]: > 1000 nM
